Assay results taken from patent US12358949B2, “Defensin fragments for use in therapy or prophylaxis” (priority 2019, dated 2025).
Like-named read-outs stand apart in the source and are kept apart here. Where a SMILES comes first, the peptide text is derived from it. [ ]: non-standard residue; d: D form.

What was measured:
[1] = tested on: A. baumannii 4-MRGN; assay type: cell-based
Experimental: (§1) The tested bacteria were incubated overnight in 1×TSB broth, centrifuged and washed with 10 mM sodium phosphate buffer containing 1% (w/v) TSB broth. 5×10^5 cfu/ml bacteria were mixed with different peptide concentrations in 10 mM sodium phosphate buffer with 1% (w/v) TSB (final volume 100 μl) and incubated for 2 hours at 37° C. Afterwards we added 100 μl 2×TSB broth and we measured the optical density at 600 nm (Spark 10M, Tecan, Austria). Bacterial growth was monitored for 12 hours, growing at 37° C. with shaking during the measurements each 30 minutes, except for Akkermansia muciniphila which were incubated at 37° C. in an anaerobic jar and growth was measured after 72 hours.

[2] = tested on: A. baumannii DSM 30007; assay type: cell-based
Experimental: as §1

[3] = tested on: E. coli JM83; assay type: cell-based
Experimental: as §1

[4] = tested on: E. faecium 475747; assay type: cell-based
Experimental: as §1

[5] = tested on: E. faecium DSM 20477; assay type: cell-based
Experimental: as §1

[6] = tested on: K. pneumoniae 3-MRGN; assay type: cell-based
Experimental: as §1

[7] = tested on: K. pneumoniae DSM 30104; assay type: cell-based
Experimental: as §1

[8] = tested on: P. aeruginosa 4-MRGN; assay type: cell-based
Experimental: as §1

[9] = tested on: P. aeruginosa ATCC 27853; assay type: cell-based
Experimental: as §1

[10] = tested on: P. aeruginosa PAO1; assay type: cell-based
Experimental: as §1

[11] = tested on: P. aeruginosa XPAT1; assay type: cell-based
Experimental: as §1

[12] = tested on: P. aeruginosa XPAT2; assay type: cell-based
Experimental: as §1

[13] = tested on: S. aureus ATCC 25923; assay type: cell-based
Experimental: as §1

[14] = tested on: S. aureus USA300; assay type: cell-based
Experimental: as §1

[15] = tested on: Y. enterocolitica; assay type: cell-based
Experimental: as §1

[16] = tested on: C. albicans 529L; assay type: cell-based
[17] = tested on: CaCo2/TC7 cells
Experimental: CaCo2/TC7 (X, X) and HT29 MTX […] […] Experiments were carried out in duplicates.

[18] = tested on: human erythrocytes; test: Hemolytic assay; assay type: cell-based; conditions: for hemolytic activity, in words: compared to Melittin
Experimental: Hemolytic activity was measured after an existing protocol^13. We obtained blood from two voluntary donors (sample collection had been previously approved by the Ethical Committee of the University Hospital of Tübingen, Germany) and 1 ml blood was washed with PBS two times. Afterwards we centrifuged the blood at 1000 g and performed a 1% (v/v) blood suspension in PBS. The blood suspension was incubated with different peptide concentrations (final concentration 0.5%) for one hour at 37° C. Then the samples were centrifuged at 1000 g for 10 minutes and the supernatant was collected and measured at 414 nm. […] These experiments were carried out in duplicates.

[19] = tested on: HT29 MTX E29 cells
Experimental: CaCo2/TC7 (X, X) and HT29 MTX [MUT] (X, X) were seed in a 96 well plate in 90 μl media (1500 cells/well) and incubated at 37° C. for 24 hours. Afterwards peptide treatment with different concentrations started (volume of 10 μl solved in 0.01% acetic acid) and cells were incubated for 96 hours. Untreated and 1% Triton-X treated cells were used as controls. After the incubation we added 100 μl of CellTiter Glo2.0 solution and started our measurement protocol. The measurement was carried out in a Spark 10M (Tecan), starting with 12 minutes continuously shaking followed by the luminescence measurement with an integration time from 1 second per well. Experiments were carried out in duplicates.

[20] = tested on: E. coli BW 25113; assay type: cell-based; conditions: E. coli (BW 25113 per table title); after 12 hours
Experimental: as §1

[21] = tested on: S. enterica serovar enteriditis; test: Turbidity broth assay (MIC); assay type: cell-based; conditions: after 12 hours
Experimental: as §1

[22] = A. baumannii 4-MRGN, after 12 hours
[23] = A. baumannii DSM30007, after 12 hours
[24] = E. faecium 475747, after 12 hours
[25] = E. faecium DSM20477, after 12 hours
[26] = K. pneumoniae 3-MRGN, after 12 hours
[27] = K. pneumoniae DSM30104, after 12 hours
[28] = P. aeruginosa 4-MRGN, after 12 hours
[29] = P. aeruginosa ATCC 27853, after 12 hours
[30] = P. aeruginosa PAO1, after 12 hours
[31] = P. aeruginosa XPAT1, after 12 hours
[32] = P. aeruginosa XPAT2, after 12 hours
[33] = S. aureus ATCC25923, after 12 hours
[34] = S. aureus USA300, after 12 hours
[35] = Y. enterocolitica, after 12 hours
[36] = C. albicans 529L, after 24 hours (Table 5)

Molecule | MIC ([1]; 4-MRGN, 12 h) | MIC [1, 22] | MIC [2, 23] | MIC ([2]; DSM 30007, 12 h) | MIC ([3]; E. coli JM83, after 12 hours) | MIC ([3]; JM83, 12 h) | MIC ([4]; 475747, 12 h) | MIC [4, 24] | MIC ([5]; DSM 20477, 12 h) | MIC [5, 25] | MIC [6, 26] | MIC [7, 27] | MIC [8, 28] | MIC [9, 29] | MIC [10, 30] | MIC [11, 31] | MIC [12, 32] | MIC [13, 33] | MIC [14, 34] | MIC [15, 35] | other results
CC(C)C[C@H](NC(=O)[C@H](CCCNC(=N)N)NC(=O)[C@H](CS)NC(=O)[C@H](CO)NC(=O)[C@H](CS)NC(=O)[C@@H](N)C(C)C)C(=O)N[C@H](C(=O)N[C@@H](Cc1ccccc1)C(=O)N[C@@H](CS)C(=O)N[C@@H](CCCNC(=N)N)C(=O)N[C@@H](CCCNC(=N)N)C(=O)O)C(C)C [HNP-41-11] (H-VCSCRLVFCRR-OH; N-terminus and C-terminus assumed) | 25 µM | 33.5 mg/L | 8.4 mg/L | 6.25 µM | 8.4 mg/L | 6.25 µM | 3.125 µM | 4.2 mg/L | 12.5 µM | 16.8 mg/L | 33.5 mg/L | 33.5 mg/L | 67.1 mg/L | 16.8 mg/L | 16.8 mg/L | 16.8 mg/L | 16.8 mg/L | 16.8 mg/L | 67.1 mg/L | 16.8 mg/L | MIC ([6]; 3-MRGN, 12 h): 25 µM; MIC ([7]; DSM 30104, 12 h): 25 µM; MIC ([8]; 4-MRGN, 12 h): 50 µM; MIC ([9]; ATCC 27853, 12 h): 12.5 µM; MIC ([10]; PAO1, 12 h): 12.5 µM; MIC ([11]; XPAT1, 12 h): 12.5 µM; MIC ([12]; XPAT2, 12 h): 12.5 µM; MIC ([13]; ATCC 25923, 12 h): 12.5 µM; MIC ([14]; USA300, 12 h): 50 µM; MIC ([15]; 12 h): 12.5 µM; MIC ([16]; 529L, 24 h): 100 µM; MIC [16, 36]: 134.2 mg/L; cytotoxic effects [17]: minor cytotoxic effects; hemolytic activity, in words [18]: low hemolytic activity; cytotoxic effects compared to CaCo2/TC7 [19]: more susceptible
Ac-atcycrtGr-NH2 [HD-51-9mod] | – | 12.5 µM | 25 µM | – | – | – | – | 3.125 µM | – | 6.25 µM | >>> | >>> | 50 µM | 12.5 µM | 50 µM | >100 µM | 100 µM | 12.5 µM | 12.5 µM | 50 to 100 µM | MIC [20]: 25 µM; MIC [21]: >>>; MIC ([16]; C. albicans 529L, after 12 hours (Table 4)): >100 µM
CC(=O)N[C@@H](C(=O)N[C@H](CS)C(=O)N[C@H](CO)C(=O)N[C@H](CS)C(=O)N[C@H](CCCNC(=N)N)C(=O)N[C@H](CC(C)C)C(=O)N[C@@H](C(=O)N[C@H](Cc1ccccc1)C(=O)N[C@H](CS)C(=O)N[C@H](CCCNC(=N)N)C(=O)N[C@H](CCCNC(=N)N)C(N)=O)C(C)C)C(C)C [HNP-41-11mod, Ac-vcscrlvfcrr-NH2] (Ac-[dV][dC][dS][dC][dR][dL][dV][dF][dC][dR][dR]-NH2) | 6.25 µM | 8.6 mg/L | 8.6 mg/L | 6.25 µM | 8.6 mg/L | 6.25 µM | 3.125 µM | 4.3 mg/L | 6.25 µM | 8.6 mg/L | 8.6 mg/L | 8.6 mg/L | 8.6 mg/L | 8.6 mg/L | 17.3 mg/L | 17.3 mg/L | 17.3 mg/L | 4.3 mg/L | 17.3 mg/L | 8.6 mg/L | MIC ([6]; 3-MRGN, 12 h): 6.25 µM; MIC ([7]; DSM 30104, 12 h): 6.25 µM; MIC ([8]; 4-MRGN, 12 h): 6.25 µM; MIC ([9]; ATCC 27853, 12 h): 6.25 µM; MIC ([10]; PAO1, 12 h): 12.5 µM; MIC ([11]; XPAT1, 12 h): 12.5 µM; MIC ([12]; XPAT2, 12 h): 12.5 µM; MIC ([13]; ATCC 25923, 12 h): 3.125 µM; MIC ([14]; USA300, 12 h): 12.5 µM; MIC ([15]; 12 h): 6.25 µM; MIC ([16]; 529L, 24 h): 25 µM; MIC [16, 36]: 34.6 mg/L; cytotoxic effects [17]: minor cytotoxic effects; hemolytic toxicity ([18]; at ≤18.75 μM): negligible toxicity; hemolytic activity, in words [18]: low hemolytic activity; cytotoxic effects compared to CaCo2/TC7 [19]: more susceptible
